{"source": "patent US7332482B2", "about": "“Method for treating benign prostatic hyperplasia” (BioXell S.p.A., priority 2003, dated 2008)", "key": {"BPH cells": {"test_system": "BPH cells", "assay": "In situ end labeling (ISEL) of apoptotic BPH cells", "assay_type": "cell-based, human", "description": "Human BPH cells, prepared, maintained and used as previously described in Crescioli C, et al. Journal of Clinical and Endocrinology Metabolism (2000) 85 p 2576-2583, were obtained from prostate tissues derived from 5 patients, who underwent suprapubic adenomectomy for BPH, after informed consent and approval by the Local Ethical Committee.\nISEL was performed onto BPH cells using Apop Tag in situ apoptosis detection kit peroxydase following the manufacturer's instruction. Cells were incubated with T (10 nM), KGF (10 ng/ml) or Des(1-3)IGF-I (10 ng/ml) with or without Compound A (10 nM). The percentage of apoptotic cells (the number of stained cells divided by the total number of cells) was calculated in at least five separate fields per slide in five different slides. Results are expressed as mean±SEM from three separate experiments."}, "rat ventral prostate": {"test_system": "rat ventral prostate", "assay": "Ventral prostate growth in castrated, T enanthate-supplemented rats", "assay_type": "in vivo", "details": "castrated rats + T enanthate 30 mg/Kg/week; oral, 9 administrations; Compound A 10-300 μg/Kg, finasteride 10, 40 mg/Kg", "description": "Male Sprague Dawley rats (28 days old) were purchased from Charles River Laboratories (Calco, Lecco, Italy). All animal experimentation described was conducted in accord with accepted standards of animal care. Castration was performed via the scrotal route under ketamine/xylazine anaesthesia."}, "bladder": {"test_system": "bladder", "assay": "Bladder outlet obstruction (BOO) rat model, cystometry and bladder weight", "assay_type": "in vivo", "details": "BOO rats, 150 μg/Kg daily, 2 weeks", "description": "• Female Sprague-Dawley rats, weighing 200-250 g 1.2. Grouping • Group A: BOO rats, treated with Compound A over 2 weeks, beginning at day 1 after creation of the obstruction (n=12) • Group B: BOO rats, treated with vehicle over 2 weeks, beginning at day 1 after creation of the obstruction (n=12) • Group C: Sham operated rats, treated with Compound A over 2 weeks, beginning at day 1 after surgery (n=12) 1.3. Studies: • a) Cystometry (˜18 hours after last administration of the drug/vehicle, 12 hours after removal of the obstructing ligature) under conscious conditions. • b) Measurements of bladder weight • c) In vitro investigations 2. Methods 2.1. Bladder Outlet Obstruction (BOO):\nThe bladder and urethrovesical junction were exposed through a lower abdominal midline incision. A 0.9 mm metal rod was placed alongside the proximal urethra and a 3-0 silk ligature was tied tightly around the urethra and the rod, which was consequently be removed. Sham surgery was be performed accordingly, without placing the ligature. After 13 days the ligature was be removed and a catheter was be inserted into the bladder dome and tunneled subcutaneously.\nThe following morning after insertion of the catheter, the cystometric investigation was performed without any anesthesia or restraint in a metabolic cage. The amount of voided urine was measured by means of a fluid collector, connected to a force displacement transducer. The bladder was continuously filled with saline at room temperature. The catheter was also connected to a pressure transducer. After a stabilization period of 30-60 minutes, when reproducible voiding patterns are achieved, the following parameters were recorded over a period of 30 minutes: Basal bladder pressure, micturition pressure, threshold pressure, micturition interval and volume, and non-voiding contractions. The amount of residual urine was investigated manually 3 times, at the end of the cystometry. Bladder capacity was calculated based on the measured values.\nThe validated bladder outlet obstruction rat model described above was used to test the ability of Compound A to control and treat bladder dysfunction. The objective was to evaluate whether a vitamin D3 analogue (1-alpha-fluoro-25-hydroxy-16,23e-diene-26,27-bishomo-20-epi-cholecalciferol—compound “A”) at the dose of 150 μg/Kg/daily) can prevent bladder hypertrophy and bladder dysfunction such as bladder overactivity.\nIn this model a ligature was surgically placed around the outlet of the catheterized bladder, so that when the catheter was removed, the bladder experienced increased urethral resistance. The rats underwent continuous cystometry to evaluate bladder function. In addition the contractile properties of isolated bladder preparation in response to nerve stimulation and exogenous stimuli in vitro were investigated under electrical field stimulation (EFS).\nThe following cystometric parameters were investigated (see FIGS. 12-16): • micturition pressure (the maximum bladder pressure during micturition), • bladder capacity (residual volume after voiding plus the volume of saline infused to induce the void) • micturition volume (volume of the expelled urine) • residual urine (bladder capacity minus micturition volume) and • frequency and amplitude of spontaneously occurring changes intravesical pressure (non-voiding contractions)."}, "AR": {"target": "T1, AR (Homo sapiens, UniProt P10275)", "T1 sequence (P10275 1-920)": "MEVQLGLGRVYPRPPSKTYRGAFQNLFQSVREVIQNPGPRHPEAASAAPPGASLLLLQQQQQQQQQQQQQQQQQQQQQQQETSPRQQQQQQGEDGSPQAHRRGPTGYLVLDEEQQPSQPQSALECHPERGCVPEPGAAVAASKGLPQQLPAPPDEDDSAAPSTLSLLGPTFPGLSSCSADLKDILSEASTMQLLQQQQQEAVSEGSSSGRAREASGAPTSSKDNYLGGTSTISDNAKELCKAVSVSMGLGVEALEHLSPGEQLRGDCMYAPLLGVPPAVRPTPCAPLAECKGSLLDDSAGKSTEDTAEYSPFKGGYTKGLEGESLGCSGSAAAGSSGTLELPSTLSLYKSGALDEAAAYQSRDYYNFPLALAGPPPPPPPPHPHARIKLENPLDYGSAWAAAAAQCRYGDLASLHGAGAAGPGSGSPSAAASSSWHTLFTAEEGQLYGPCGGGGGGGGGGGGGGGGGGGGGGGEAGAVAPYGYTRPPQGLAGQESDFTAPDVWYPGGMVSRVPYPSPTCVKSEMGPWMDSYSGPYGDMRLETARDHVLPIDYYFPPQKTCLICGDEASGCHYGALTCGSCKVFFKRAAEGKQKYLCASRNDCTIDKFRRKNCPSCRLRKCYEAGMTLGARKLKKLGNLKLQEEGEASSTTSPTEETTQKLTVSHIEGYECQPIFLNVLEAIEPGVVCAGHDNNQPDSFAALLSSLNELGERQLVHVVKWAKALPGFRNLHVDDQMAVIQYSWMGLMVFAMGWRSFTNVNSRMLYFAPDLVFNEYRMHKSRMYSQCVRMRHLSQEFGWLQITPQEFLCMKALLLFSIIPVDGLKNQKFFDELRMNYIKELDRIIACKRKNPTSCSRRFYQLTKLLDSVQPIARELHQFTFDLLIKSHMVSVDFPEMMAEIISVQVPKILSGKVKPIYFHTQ", "assay": "Luciferase assay in AR-transfected PC3 cells", "assay_type": "cell-based", "design": "In PC3 cells expressing the full length AR coupled to a luciferase report gene; expressed in transfected cells; host or cells: PC3 (AR-deficient human prostate adenocarcinoma), stably transfected with p5HbhAR-A", "details": "increasing concentrations, alone or with DHT 3 nM", "procedure": "PC3 cells stably transfected with human AR were plated in 24-well plates at a density of 2×10^4 in Ham's F12 plus 10% FCS. […] Transfected cells incubated with ethanol only served as positive controls.\nThe Luciferase assay was performed with a Berthold luminometer according to the manufacturer's instructions (Luciferase Assay System, Promega, Milan, Italy). The cells were lysed directly in the plate with 200 μl of lysis buffer. Luciferase activity was measured on 20 μl of cell lysate for 10 s after addition of 100 μl of luciferine. Total protein measurement was performed on 20 μl of cell lysate. At least three independent assays were done in duplicate."}}, "note": "Marks after values point to notes of the source that are not given here.", "data": [{"smiles": "C=C1/C(=C\\C=C2/CCC[C@]3(C)C([C@@H](C)C/C=C/C(O)(CC)CC)=CC[C@@H]23)C[C@@H](O)C[C@@H]1F", "note": "[Compound A, 1-alpha-fluoro-25-hydroxy-16,23E-diene-26,27-bishomo-20-epi-cholecalciferol]", "values": [{"measurement": "change in percentage of apoptotic nuclei vs untreated cells", "setting": "BPH cells; 48 h, Compound A 10 nM, T 10 nM, GFs 10 ng/ml", "value": 270, "unit": "%"}, {"measurement": "Apoptotic index (%)", "setting": "BPH cells; Compound A 10 nM alone, ISEL", "value": "68.44 ± 1.26^a %"}, {"measurement": "Apoptotic index (%)", "setting": "BPH cells; Compound A 10 nM with Des(1-3)IGF-I 10 ng/ml", "value": "45.85 ± 0.66^a,b,c %"}, {"measurement": "increase in number of ISEL-positive BPH cells in the presence of GFs or T", "setting": "BPH cells; Compound A 10 nM with GFs or T", "value": "more than 250%"}, {"measurement": "Apoptotic index (%)", "setting": "BPH cells; Compound A 10 nM with KGF 10 ng/ml", "value": "44.46 ± 0.57^a,b,c %"}, {"measurement": "Apoptotic index (%)", "setting": "BPH cells; Compound A 10 nM with T 10 nM", "value": "49.06 ± 1.87^a,b,c %"}, {"measurement": "effect on T-stimulated prostate over-growth (ventral prostate weight)", "setting": "rat ventral prostate", "value": "completely blunted"}, {"measurement": "bladder weight", "setting": "bladder", "value": "slight decrease"}, {"measurement": "micturition pressure", "setting": "bladder", "value": "significant differences versus vehicle"}, {"measurement": "residual urine", "setting": "bladder", "value": "absent"}, {"measurement": "spontaneous non-voiding contraction amplitude", "setting": "bladder", "value": "significant differences versus vehicle"}, {"measurement": "spontaneous non-voiding contraction frequency", "setting": "bladder", "value": "significant differences versus vehicle"}, {"measurement": "effect on AR-mediated luciferase activity (agonist/antagonist)", "setting": "AR", "value": "neither stimulated nor inhibited"}]}]}
